Data on 24 compounds can be found in PubChem BioAssay (NCI).

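Following 48 hours of exposure in 96-well plates, responses at five concentrations were used to interpolate endpoints linearly. GI50 marks 50% less growth. The concentration for full growth arrest is given as TGI.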

One test has as its system UACC-257 melanoma. In words: NCI tumour cell line growth inhibition, 48 h.
As for `CC(=O)[CH-]C(=O)c1ccccc1.CC(=O)[CH-]C(=O)c1ccccc1.CC1(C)OCC(C2OC3OC(C)(C)OC3C2[O-])O1.CC[O-].[Ti+4]` (centres undefined), the GI50 was 19.4 µM and the TGI came to 54.8 µM.
As to `Cc1ccccc1/C=C/C(=O)c1ccccc1`, the TGI was 42.4 µM.
As for `Cc1cc2c(cc1Cl)S/C(=C/C(=O)O)C(Nc1cccc3nsnc13)=NS2(=O)=O`, the GI50 is over 57.9 µM and the TGI was over 70.7 µM.
Regarding `O=C1c2ccccc2-c2c1c1ccccc1c(=O)n2CCNCCn1c2c(c3ccccc3c1=O)C(=O)c1ccccc1-2`, the GI50 was over 25 µM and the TGI was over 25 µM.
`CCCCCCCCCCCCCC[n+]1cccc(C(N)=O)c1`: the GI50 was 2.34 µM and the TGI stood at 8.46 µM.
In turn, `N#CC(C#N)=c1c2nsnc2c(=C(C#N)C#N)c2nsnc12` yielded a TGI of 3.53 µM.
Consider `C/C1=C\CC[C@@](C)(O)[C@@H]2C[C@H](CC/C(C)=C/CC1)C1(CC1)C(=O)O2`, for which the GI50 is 77.8 µM and the TGI was over 100 µM.

The next test deals with HL-60(TB) leukemia. In words: NCI tumour cell line growth inhibition, 48 h.
As for `Cc1c(C(=O)/C=C/c2ccccc2[N+](=O)[O-])[n+](=O)c2ccccc2n1[O-]`, the TGI amounted to 5.71 µM.
With `O=C(/C=C/c1cccc(O)c1)c1cccc(-n2cc(-c3ccc4ccccc4c3)[nH]c2=O)c1`, the GI50 is 1.01 µM and the TGI turned out to be 3.21 µM.
Consider `CCCCCCC(C)CCCCCCCCCCC(=O)O` (centres undefined), for which the TGI is over 100 µM.
On the same count and under the same terms, the result for `COc1ccc2c(NCCCCCCNc3c4ccccc4nc4cc(OC)ccc34)c3ccccc3nc2c1` reads 0.379 µM; that for `CC1(O)CCn2c(=O)c3cc4ccccc4cc3c(=O)n2C1O` (centres undefined), over 100 µM; that for `CC(C)[O-].CC(C)[O-].O=c1cccccc1[O-].O=c1cccccc1[O-].[Ti+4]`, over 100 µM.
As for `COc1ccccc1NC(=O)/C(=C/c1ccccc1)C(C)=O`, the TGI was 57.3 µM.
On to `Clc1ccc2c(c1)N(c1ncnc3ccc(-c4cnc5[nH]ncc5c4)cc13)CC2`, for which the GI50 is 0.411 µM and the TGI was over 100 µM.
In turn, `C=C1C2Oc3ccccc3C1N(c1ccccc1)O2` (centres undefined) gave a TGI of over 100 µM.
Same read-out and setting: in the case of `CCOC(=O)C1(Cc2ccc3ccccc3c2)CCCCC(=O)N1` (centres undefined) it was 30.3 µM.
For `Cc1cc2c(cc1Cl)S/C(=C/C(=O)O)C(Nc1cccc3nsnc13)=NS2(=O)=O`, the GI50 was 7.63 µM and the TGI was over 32.5 µM.
As for `CCOC(=O)N1CCN(CCCCCOc2ccccc2C2CCCCC2)CC1`, the GI50 was 1.39 µM and the TGI came out at 3.5 µM.
`N#CC(C#N)=c1c2nsnc2c(=C(C#N)C#N)c2nsnc12`: the TGI was found to be 4.64 µM.
As to `C/C1=C\CC[C@@](C)(O)[C@@H]2C[C@H](CC/C(C)=C/CC1)C1(CC1)C(=O)O2`, the GI50 was 15.4 µM and the TGI came to 33.4 µM.

A further test concerns SNB-75 CNS. In words: NCI tumour cell line growth inhibition, 48 h.
In turn, `CC(C)(C)OC(=O)NC1CCCC1=O` (centres undefined) displayed a TGI of over 100 µM.
Regarding `Cc1c(C(=O)/C=C/c2ccccc2[N+](=O)[O-])[n+](=O)c2ccccc2n1[O-]`, the TGI amounted to 30.3 µM.
On to `O=C(/C=C/c1cccc(O)c1)c1cccc(-n2cc(-c3ccc4ccccc4c3)[nH]c2=O)c1`, for which the GI50 was 1.88 µM and the TGI was 5.93 µM.
As to `CCCCCCC(C)CCCCCCCCCCC(=O)O` (centres undefined), the TGI was over 100 µM.
For the compound `COc1ccc2c(NCCCCCCNc3c4ccccc4nc4cc(OC)ccc34)c3ccccc3nc2c1`, the TGI turned out to be 1.74 µM.
For `O=C(O)c1ccccc1C(=O)c1ccc2c(c1)Cc1ccccc1-2`, the TGI was over 100 µM.
Consider `CC(C)(C)c1ccc(OC2CCO2)cc1` (centres undefined), for which the TGI was over 100 µM.
Turning to `C=CC1=C(C)C2=NC1=CC1=NC(=CC3=C(C)C4=C(O)[C@H](C(=O)OC)C(=C5NC(=C2)[C@@H](C)[C@@H]5CCC(=O)O)C4=N3)C(CC)=C1C`, the TGI was found to be 8.25 µM.
For the compound `CC(C)[O-].CC(C)[O-].O=c1cccccc1[O-].O=c1cccccc1[O-].[Ti+4]`, the TGI was over 100 µM.
As for `Clc1ccc2c(c1)N(c1ncnc3ccc(-c4cnc5[nH]ncc5c4)cc13)CC2`, the GI50 is 0.0804 µM and the TGI is 0.517 µM.
As for `O=C(CC1(O)C(=O)Nc2c(Cl)ccc(Cl)c21)c1ccc(Cl)cc1Cl` (centres undefined), the TGI is 46.9 µM.
The compound `C=C1C2Oc3ccccc3C1N(c1ccccc1)O2` (centres undefined) returned a TGI of over 100 µM.
For `O=C(c1cccs1)C1NO[N+]([O-])=C1c1cccs1` (centres undefined), the GI50 was 1.54 µM and the TGI was determined as 3.89 µM.
Take `CC(=O)[CH-]C(=O)c1ccccc1.CC(=O)[CH-]C(=O)c1ccccc1.CC1(C)OCC(C2OC3OC(C)(C)OC3C2[O-])O1.CC[O-].[Ti+4]` (centres undefined): the GI50 is 6.6 µM.
Consider `CCOC(=O)C1(Cc2ccc3ccccc3c2)CCCCC(=O)N1` (centres undefined), for which the TGI was determined as 9.22 µM.
Compound `Cc1ccccc1/C=C/C(=O)c1ccccc1` had a TGI of 34.6 µM.
Take `Cc1cc2c(cc1Cl)S/C(=C/C(=O)O)C(Nc1cccc3nsnc13)=NS2(=O)=O`: the GI50 is over 100 µM and the TGI is over 100 µM.
As to `CCOC(=O)N1CCN(CCCCCOc2ccccc2C2CCCCC2)CC1`, the GI50 is 10.7 µM and the TGI came to 23 µM.
With `CCCCCCCCCCCCCC[n+]1cccc(C(N)=O)c1`, the GI50 was 1.06 µM and the TGI came to 2.57 µM.
Compound `N#CC(C#N)=c1c2nsnc2c(=C(C#N)C#N)c2nsnc12` registered a TGI of 3.01 µM.
As for `C/C1=C\CC[C@@](C)(O)[C@@H]2C[C@H](CC/C(C)=C/CC1)C1(CC1)C(=O)O2`, the GI50 is 30.8 µM and the TGI was over 100 µM.

For a further test, the system named is A498 renal. In words: NCI tumour cell line growth inhibition, 48 h.
`CC(C)(C)OC(=O)NC1CCCC1=O` (centres undefined) yielded a TGI of over 100 µM.
The compound `Cc1c(C(=O)/C=C/c2ccccc2[N+](=O)[O-])[n+](=O)c2ccccc2n1[O-]` registered a TGI of 26 µM.
Turning to `CCCCCCC(C)CCCCCCCCCCC(=O)O` (centres undefined), the TGI was over 100 µM.
Take `O=C(O)c1ccccc1C(=O)c1ccc2c(c1)Cc1ccccc1-2`: the TGI is over 100 µM.
The compound `CC(C)(C)c1ccc(OC2CCO2)cc1` (centres undefined) returned a TGI of over 100 µM.
Still for that read-out and setting: the result for `O=C(CC1(O)C(=O)Nc2c(Cl)ccc(Cl)c21)c1ccc(Cl)cc1Cl` (centres undefined) reads 42.5 µM.
With `O=C(c1cccs1)C1NO[N+]([O-])=C1c1cccs1` (centres undefined), the GI50 was 1.95 µM and the TGI came to 6.3 µM.
With `CC(=O)[CH-]C(=O)c1ccccc1.CC(=O)[CH-]C(=O)c1ccccc1.CC1(C)OCC(C2OC3OC(C)(C)OC3C2[O-])O1.CC[O-].[Ti+4]` (centres undefined), the GI50 is 15.3 µM and the TGI turned out to be 28.6 µM.
